Columns and labels:
[1] = tested on: male humans with non-metastatic castration-resistant prostate cancer; test: Phase II clinical trial in non-metastatic castration-resistant prostate cancer, PSA decline from baseline; assay type: in vivo, human; conditions: 240 mg orally, continuous daily dosing schedule
[2] = tested on: non-castrate hormone-sensitive and bicalutamide-resistant human prostate cancer xenograft models; conditions: non-castrate hormone-sensitive and bicalutamide-resistant xenografts; Clegg et al. Cancer Res 2012; cited from earlier work
T877A AR mutant = biological target: T1, T877A AR mutant (Homo sapiens, UniProt P10275, T878A); conditions: cited from earlier work
T1 sequence (P10275 1-920 T878A): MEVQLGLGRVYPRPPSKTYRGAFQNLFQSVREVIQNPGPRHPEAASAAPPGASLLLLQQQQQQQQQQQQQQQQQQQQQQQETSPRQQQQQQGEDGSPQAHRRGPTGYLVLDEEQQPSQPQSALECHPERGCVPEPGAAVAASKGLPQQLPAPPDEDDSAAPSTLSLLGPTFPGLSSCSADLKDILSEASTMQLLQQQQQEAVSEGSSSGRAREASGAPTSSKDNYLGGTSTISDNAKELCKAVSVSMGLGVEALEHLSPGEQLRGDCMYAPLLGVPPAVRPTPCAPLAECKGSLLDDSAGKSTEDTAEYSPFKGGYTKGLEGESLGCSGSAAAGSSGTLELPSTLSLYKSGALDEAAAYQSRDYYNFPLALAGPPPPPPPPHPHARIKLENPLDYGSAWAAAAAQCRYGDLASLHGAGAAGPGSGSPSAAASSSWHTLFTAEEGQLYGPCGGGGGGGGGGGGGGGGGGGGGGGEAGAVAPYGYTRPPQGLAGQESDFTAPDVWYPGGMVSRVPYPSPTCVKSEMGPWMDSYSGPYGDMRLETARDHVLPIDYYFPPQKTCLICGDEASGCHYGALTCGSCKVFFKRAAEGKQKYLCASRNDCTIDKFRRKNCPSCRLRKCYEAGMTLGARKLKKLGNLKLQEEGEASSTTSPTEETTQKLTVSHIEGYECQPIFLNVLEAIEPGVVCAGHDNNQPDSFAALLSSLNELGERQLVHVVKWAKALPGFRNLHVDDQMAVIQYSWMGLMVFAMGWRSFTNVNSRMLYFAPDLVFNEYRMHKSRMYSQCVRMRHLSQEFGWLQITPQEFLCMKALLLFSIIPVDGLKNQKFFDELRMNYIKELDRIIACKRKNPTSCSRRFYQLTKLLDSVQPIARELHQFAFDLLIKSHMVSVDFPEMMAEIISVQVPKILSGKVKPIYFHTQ

SMILES	PSA50 (≥50% decline in PSA from baseline), share of males ([1]; at 3 months)	PSA90 (≥90% decline in PSA from baseline), share of males ([1]; at 3 months)	PSA50 (≥50% decline in PSA from baseline), share of males ([1]; at 6 months)	PSA90 (≥90% decline in PSA from baseline), share of males ([1]; at 6 months)	tumor regression [2]	activity in T877A AR mutant (T877A AR mutant)
CNC(=O)c1ccc(N2C(=S)N(c3cnc(C#N)c(C(F)(F)F)c3)C(=O)C23CCC3)cc1F [4-[7-(6-cyano-5-trifluoromethylpyridin-3-yl)-8-oxo-6-thioxo-5,7-diazaspiro[3.4]oct-5-yl]-2-fluoro-N-methylbenzamide]	91%	38%	91%	55%	partial or complete tumor regression	
CC(C)(O)C(=O)Nc1ccc([N+](=O)[O-])c(C(F)(F)F)c1 [hydroxyflutamide]						act as AR agonists
